Source: patent US20240368132A1, “ROCK2 INHIBITORS AND USES THEREOF” (President and Fellows of Harvard College, priority 2021, published 2024)

Assays:
ROCK2 = target: T1, ROCK2 (Homo sapiens, UniProt O75116); assay: ROCK2 kinase assay (Reaction Biology Hot Spot kinase assay); type: biochemical; details: purified kinase, 33P-ATP (10 μM), P81 filter-binding method
T1 construct: purchased Reaction Biology
Description: (§1) ROCK2 and ROCK] kinase assays
(§2) ROCK2 and ROCK1 enzyme potencies were determined by Reaction Biology (www.reactionbiology.com) using their Hot Spot kinase Assay. The base reaction buffer for the assay was 20 mM Hepes (pH 7.5), 10 mM MgCl2, 1 mM EGTA, 0.01% Brij35, 0.02 mg/mL BSA, 0.1 mM Na3VO4, and 2 mM DTT with a 1% DMSO concentration. Required cofactors were added individually to each kinase reaction. The substrate was freshly prepared in the reaction buffer described above, and then cofactors were delivered. The purified kinase was added to the substrate solution and then gently mixed. Compounds were added from 100% DMSO into the kinase reaction mixture by Acoustic technology (Echo550; nanoliter range) and then incubated for 20 min at room temperature. ^33P-ATP (10 μM) was delivered to initiate the reaction, and then the mixture was incubated again for two hours at room temperature. […] Nat. Biotechnol. 2011 Oct. 30; 29(11):1039-45. doi: 10.1038/nbt.2017.
(§3) The compounds were categorized based on IC50 value as “+”, “++”, “+++”, and “++++”. The category “+” refers to compounds with ROCK IC50 value of >10 μM. The category “++” refers to compounds with a ROCK IC50 value of 10 to 3 μM. The category “+++” refers to compounds with ROCK IC50 value of 3 to 0.3 μM. The category “++++” refers to compounds with a ROCK IC50 value of <0.3 μM. “ND” refers to “not determined.” The compound of an “Example Number” is the final product of an Example entitled the Example Number.

ROCK1 = target: T2, ROCK1 (Homo sapiens, UniProt Q13464); assay: ROCK1 kinase assay (Reaction Biology Hot Spot kinase assay); type: biochemical; details: purified kinase, 33P-ATP (10 μM), P81 filter-binding method
T2 construct: purchased Reaction Biology
T2 sequence (Q13464 whole entry): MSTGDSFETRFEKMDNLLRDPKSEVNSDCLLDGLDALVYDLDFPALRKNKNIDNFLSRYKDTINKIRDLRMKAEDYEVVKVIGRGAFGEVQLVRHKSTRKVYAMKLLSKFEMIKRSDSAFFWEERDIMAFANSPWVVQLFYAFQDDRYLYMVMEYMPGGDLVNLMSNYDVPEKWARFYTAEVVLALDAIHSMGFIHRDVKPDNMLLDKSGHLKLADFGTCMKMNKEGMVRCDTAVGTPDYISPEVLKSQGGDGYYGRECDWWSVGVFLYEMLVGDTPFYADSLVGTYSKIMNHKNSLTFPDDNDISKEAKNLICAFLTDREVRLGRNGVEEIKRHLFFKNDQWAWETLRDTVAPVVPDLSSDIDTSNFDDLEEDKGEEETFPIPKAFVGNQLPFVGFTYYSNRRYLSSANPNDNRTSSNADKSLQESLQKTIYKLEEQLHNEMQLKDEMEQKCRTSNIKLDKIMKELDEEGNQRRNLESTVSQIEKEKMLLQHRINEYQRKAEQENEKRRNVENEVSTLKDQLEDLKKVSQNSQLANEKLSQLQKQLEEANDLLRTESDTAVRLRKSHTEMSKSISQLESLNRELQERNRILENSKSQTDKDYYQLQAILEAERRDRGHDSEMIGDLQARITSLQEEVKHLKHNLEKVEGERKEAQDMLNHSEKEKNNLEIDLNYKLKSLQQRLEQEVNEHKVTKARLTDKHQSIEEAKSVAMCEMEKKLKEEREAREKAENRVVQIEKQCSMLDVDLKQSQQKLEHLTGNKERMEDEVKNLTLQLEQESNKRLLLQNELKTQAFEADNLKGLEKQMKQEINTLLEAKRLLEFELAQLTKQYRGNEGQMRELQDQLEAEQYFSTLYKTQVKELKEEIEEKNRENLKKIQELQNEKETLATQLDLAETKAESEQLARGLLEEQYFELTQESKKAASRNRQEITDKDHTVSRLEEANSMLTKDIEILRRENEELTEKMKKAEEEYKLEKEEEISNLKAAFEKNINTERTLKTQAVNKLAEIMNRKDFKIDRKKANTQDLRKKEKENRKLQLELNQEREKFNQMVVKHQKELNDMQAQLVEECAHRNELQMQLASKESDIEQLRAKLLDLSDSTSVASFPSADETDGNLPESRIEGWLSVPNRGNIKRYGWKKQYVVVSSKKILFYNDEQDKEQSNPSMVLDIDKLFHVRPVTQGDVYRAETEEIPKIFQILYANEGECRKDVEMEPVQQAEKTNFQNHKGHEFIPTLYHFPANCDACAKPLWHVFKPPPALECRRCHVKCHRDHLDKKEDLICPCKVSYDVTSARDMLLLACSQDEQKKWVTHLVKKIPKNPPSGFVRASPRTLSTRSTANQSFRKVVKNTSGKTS
Description: as §1, §2, §3

T1 sequence (O75116 whole entry): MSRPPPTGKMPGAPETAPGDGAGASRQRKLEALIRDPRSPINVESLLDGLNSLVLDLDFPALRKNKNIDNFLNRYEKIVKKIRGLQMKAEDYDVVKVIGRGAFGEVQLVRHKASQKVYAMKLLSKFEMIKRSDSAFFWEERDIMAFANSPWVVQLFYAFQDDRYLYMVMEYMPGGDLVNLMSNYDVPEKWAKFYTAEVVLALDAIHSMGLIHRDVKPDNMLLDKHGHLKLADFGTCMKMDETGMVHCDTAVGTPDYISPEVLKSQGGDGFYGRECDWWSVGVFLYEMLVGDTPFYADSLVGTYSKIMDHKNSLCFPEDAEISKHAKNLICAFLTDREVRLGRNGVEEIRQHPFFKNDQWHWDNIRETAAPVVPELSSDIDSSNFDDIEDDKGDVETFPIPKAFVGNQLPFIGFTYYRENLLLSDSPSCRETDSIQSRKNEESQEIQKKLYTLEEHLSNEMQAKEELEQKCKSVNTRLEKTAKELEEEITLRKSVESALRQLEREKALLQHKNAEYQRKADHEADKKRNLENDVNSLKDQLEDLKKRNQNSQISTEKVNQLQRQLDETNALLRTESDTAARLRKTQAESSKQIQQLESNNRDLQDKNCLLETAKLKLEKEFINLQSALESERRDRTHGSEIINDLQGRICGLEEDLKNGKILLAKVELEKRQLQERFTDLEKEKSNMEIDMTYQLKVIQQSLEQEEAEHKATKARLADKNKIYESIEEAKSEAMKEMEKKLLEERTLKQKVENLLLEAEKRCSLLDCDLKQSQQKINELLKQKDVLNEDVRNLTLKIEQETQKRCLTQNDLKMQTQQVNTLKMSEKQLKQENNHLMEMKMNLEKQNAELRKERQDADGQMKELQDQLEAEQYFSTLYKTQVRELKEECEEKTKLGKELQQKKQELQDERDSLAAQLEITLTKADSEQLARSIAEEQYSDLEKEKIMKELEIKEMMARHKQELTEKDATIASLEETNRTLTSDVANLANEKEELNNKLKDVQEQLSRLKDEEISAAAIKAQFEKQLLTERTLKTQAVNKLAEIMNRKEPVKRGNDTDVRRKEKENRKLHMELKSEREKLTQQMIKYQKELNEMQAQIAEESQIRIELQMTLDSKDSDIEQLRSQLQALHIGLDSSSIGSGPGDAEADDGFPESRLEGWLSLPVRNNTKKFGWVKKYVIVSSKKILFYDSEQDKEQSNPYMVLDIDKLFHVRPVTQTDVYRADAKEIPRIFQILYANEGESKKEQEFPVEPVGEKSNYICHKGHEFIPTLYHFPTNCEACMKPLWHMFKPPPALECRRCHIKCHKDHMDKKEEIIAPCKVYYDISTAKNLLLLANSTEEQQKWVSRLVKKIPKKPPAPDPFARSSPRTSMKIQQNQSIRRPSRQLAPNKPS

Row | Compound | IC50 (ROCK2) | IC50 (ROCK1) | ROCK2 IC50 (ROCK2)
1 | Cn1cc(C(=O)Nc2cccc(-c3nc(Nc4ccc5[nH]ncc5c4)no3)c2)cn1 [Example 39] | < 300 nM | < 300 nM | –
2 | Cc1cn(-c2ccc3c(c2)CCN(C(=O)C2CC2)C3)nc1Nc1ccc2[nH]ncc2c1Cl [Example 79, [6-[3-[(4-chloro-1H-indazol-5-yl)amino]-4-methyl-pyrazol-1-yl]-3,4-dihydro-1H-isoquinolin-2-yl]-cyclopropyl-methanone] | < 300 nM | 3000 to 10000 nM | –
3 | Cc1coc(-c2cc(-c3nnc(Nc4ccc5[nH]ncc5c4Cl)o3)ccn2)n1 [Example 48, N-(4-chloro-1H-indazol-5-yl)-5-(2-(4-methyloxazol-2-yl)pyridin-4-yl)-1,3,4-oxadiazol-2-amine] | < 300 nM | < 300 nM | –
4 | CC(C)NC(=O)COc1ccc(-n2ccc(Nc3ccc4[nH]ncc4c3Cl)n2)cc1F [Example 75, 2-(4-(3-((4-chloro-1H-indazol-5-yl)amino)-1H-pyrazol-1-yl)-2-fluorophenoxy)—N-isopropylacetamide] | < 300 nM | 300 to 3000 nM | –
5 | COc1cc(-n2cc(C)c(Nc3ccc4[nH]ncc4c3Cl)n2)ccc1OCC(=O)NC(C)C [Example 13] | < 300 nM | 300 to 3000 nM | –
6 | Cc1cn(-c2ccc3c(c2)CCNC3=O)nc1Nc1ccc2[nH]ncc2c1Cl [Example 83, 6-(3-((4-chloro-1H-indazol-5-yl)amino)-4-methyl-1H-pyrazol-1-yl)-3,4-dihydroisoquinolin-1(2H)-one] | < 300 nM | < 300 nM | –
7 | Cc1cn(-c2ccc3c(c2)CCN(C(=O)C(C)C)C3)nc1Nc1ccc2[nH]ncc2c1Cl [Example 80, 1-[6-[3-[(4-chloro-1H-indazol-5-yl)amino]-4-methyl-pyrazol-1-yl]-3,4-dihydro-1H-isoquinolin-2-yl]-2-methyl-propan-1-one] | – | > 10000 nM | + +
8 | Cn1cc(-c2nc3cc(-n4ccc(Nc5ccc6[nH]ncc6c5Cl)n4)ccc3o2)cn1 [Example 65, 4-chloro-N-(1-(2-(1-methyl-1H-pyrazol-4-yl)benzo[d]oxazol-5-yl)-1H-pyrazol-3-yl)-1H-indazol-5-amine] | < 300 nM | 300 to 3000 nM | –
9 | Cn1cc(-n2nc(Nc3ccc4[nH]ncc4c3Cl)c3ccccc32)cc(NC(=O)c2ccccc2F)c1=O [Example 68, N-(5-(3-((4-chloro-1H-indazol-5-yl)amino)-1H-indazol-1-yl)-1-methyl-2-oxo-1,2-dihydropyridin-3-yl)-2-fluorobenzamide] | < 300 nM | < 300 nM | –
10 | Clc1c(Nc2nnc(-c3ccnc(-c4ncco4)c3)o2)ccc2[nH]ncc12 [Example 49] | < 300 nM | < 300 nM | –
11 | O=C(Nc1cccc(-c2cc(Nc3ccc4[nH]ncc4c3)no2)c1)c1cccnc1 [Example 35] | < 300 nM | 300 to 3000 nM | –
12 | Cn1cc(C(=O)Nc2cccc(-n3ccc(Nc4ccc5[nH]ncc5c4)n3)c2)cn1 [Example 1, N-(3-(3-((1H-indazol-5-yl)amino)-1H-pyrazol-1-yl)phenyl)-1-methyl-1H-pyrazole-4-carboxamide] | 300 to 3000 nM | 3000 to 10000 nM | –
13 | Cn1cc(C(=O)Nc2cccc(-n3nc(Nc4ccc5[nH]ncc5c4Cl)c4ccccc43)n2)cn1 [Example 46] | < 300 nM | < 300 nM | –
14 | Cn1cc(C(=O)Nc2cccc(-n3nc(Nc4ccc5[nH]ncc5c4)c4ccccc43)c2)cn1 [Example 21] | 300 to 3000 nM | 3000 to 10000 nM | –
15 | COc1cc(-n2cc(C)c(Nc3ccc4[nH]ncc4c3Cl)n2)ccc1C(=O)NC1CCN(C)C1 (centres unmarked) [Example 86] | < 300 nM | < 300 nM | –
16 | O=C(Nc1cccc(-c2noc(Nc3ccc4[nH]ncc4c3Cl)n2)c1)c1ccccc1F [Example 61, N-(3-(5-((4-chloro-1H-indazol-5-yl)amino)-1,2,4-oxadiazol-3-yl)phenyl)-2-fluorobenzamide] | > 10000 nM | < 300 nM | –
